Literature values, collected in US6706892B1, “Pulmonary delivery for bioconjugation” (priority 1999, dated 2004).

Assays:
[1] = in vivo
[2] = test system: breast cancer; settings: in vivo

## CC1=NS(=O)(=O)c2cc(Cl)ccc2N1 [Diazoxide]
[1]
  half-life: about 24 hours

## O=C(c1ccc(OCCN2CCCCC2)cc1)c1c(-c2ccc(O)cc2)sc2cc(O)ccc12 [Raloxifene]
[2]
  cut in the risk of breast cancer: ≤ 60%
